Numbers after ± are expanded uncertainties.
Tests used:
[1] = xn = mol fraction of the nth substance listed; details: 100 kPa, Liquid; for viscosity: Falling or rolling sphere viscometry; for mass density: Vibrating tube method
[2] = refractive index (Na D-line) (dimensionless); xn = mol fraction of the nth substance listed; details: 100 kPa, Liquid, Standard Abbe refractometry

NCCNCCO [N-(2-aminoethyl)ethanolamine] + NCCO
Details	mass density, 298.15 K [kg/m3]	mass density, 303.15 K [kg/m3]	mass density, 308.15 K [kg/m3]	refractive index, 298.15 K	refractive index, 303.15 K	refractive index, 308.15 K	viscosity, 298.15 K [mPa·s]	viscosity, 303.15 K [mPa·s]	viscosity, 308.15 K [mPa·s]
[1], x2 = 0	1025.8 ± 2	1021.3 ± 2	1016.3 ± 2	–	–	–	98.62 ± 2.9	70.57 ± 1.6	53.11 ± 1.1
[1], x2 = 0.1072	1025.7 ± 2	1021.4 ± 2	1016.6 ± 2	–	–	–	95.09 ± 2.7	69.25 ± 1.6	52.77 ± 1.1
[1], x2 = 0.2634	1025.2 ± 2	1020.9 ± 2	1016.2 ± 2	–	–	–	90.58 ± 2.5	67.59 ± 1.6	52.68 ± 1.1
[1], x2 = 0.4233	1024.4 ± 2	1020.2 ± 2	1015.7 ± 2	–	–	–	78.29 ± 2	59.5 ± 1.3	46.92 ± 1.1
[1], x2 = 0.5481	1023.4 ± 2.1	1019.3 ± 2.1	1014.9 ± 2.1	–	–	–	64.72 ± 1.5	48.92 ± 1.1	38.49 ± 0.87
[1], x2 = 0.6305	1022.5 ± 2.1	1018.4 ± 2.1	1014.1 ± 2.1	–	–	–	53.12 ± 1.1	39.84 ± 0.91	31.01 ± 0.71
[1], x2 = 0.6851	1021.7 ± 2.1	1017.6 ± 2.1	1013.4 ± 2.1	–	–	–	44.75 ± 1	32.81 ± 0.75	25.15 ± 0.58
[1], x2 = 0.7988	1019.4 ± 2.1	1015.5 ± 2.1	1011.4 ± 2.1	–	–	–	27.93 ± 0.65	20.04 ± 0.46	14.71 ± 0.34
[1], x2 = 0.8459	1018.2 ± 2.1	1014.3 ± 2.1	1010.3 ± 2.1	–	–	–	22.36 ± 0.52	15.94 ± 0.37	11.31 ± 0.26
[1], x2 = 0.9377	1015.2 ± 2.1	1011.4 ± 2.1	1007.5 ± 2.1	–	–	–	17.18 ± 0.4	12.82 ± 0.3	9.55 ± 0.22
[2], x2 = 0	–	–	–	1.4843 ± 0.002	1.4827 ± 0.002	1.4811 ± 0.002	–	–	–
[2], x2 = 0.1005	–	–	–	1.4824 ± 0.002	1.481 ± 0.002	1.4796 ± 0.002	–	–	–
[2], x2 = 0.1993	–	–	–	1.4799 ± 0.002	1.4785 ± 0.002	1.4771 ± 0.002	–	–	–
[2], x2 = 0.299	–	–	–	1.4774 ± 0.002	1.476 ± 0.002	1.4745 ± 0.002	–	–	–
[2], x2 = 0.4047	–	–	–	1.4742 ± 0.002	1.4728 ± 0.002	1.4715 ± 0.002	–	–	–
[2], x2 = 0.5033	–	–	–	1.4714 ± 0.002	1.47 ± 0.002	1.4685 ± 0.002	–	–	–
[2], x2 = 0.5985	–	–	–	1.4683 ± 0.002	1.4668 ± 0.002	1.4652 ± 0.002	–	–	–
[2], x2 = 0.6981	–	–	–	1.4647 ± 0.002	1.4633 ± 0.002	1.462 ± 0.002	–	–	–
[2], x2 = 0.7985	–	–	–	1.4611 ± 0.0021	1.4598 ± 0.0021	1.4585 ± 0.0021	–	–	–
[2], x2 = 0.8996	–	–	–	1.4573 ± 0.0021	1.4559 ± 0.0021	1.4545 ± 0.0021	–	–	–

NCCNCCN [di(2-aminoethyl)amine] + NCCO
Details	mass density, 298.15 K [kg/m3]	mass density, 303.15 K [kg/m3]	mass density, 308.15 K [kg/m3]	refractive index, 298.15 K	refractive index, 303.15 K	refractive index, 308.15 K	viscosity, 298.15 K [mPa·s]	viscosity, 303.15 K [mPa·s]	viscosity, 308.15 K [mPa·s]
[1], x2 = 0	945.8 ± 2.1	942.1 ± 2.1	937.8 ± 2.1	–	–	–	5.63 ± 0.13	4.5 ± 0.11	3.85 ± 0.09
[1], x2 = 0.1619	956.5 ± 2.1	953.1 ± 2.1	949.1 ± 2.1	–	–	–	8.28 ± 0.19	6.59 ± 0.15	5.38 ± 0.13
[1], x2 = 0.2973	964.6 ± 2.1	961.1 ± 2.1	957.1 ± 2.1	–	–	–	10.37 ± 0.24	8.33 ± 0.2	6.68 ± 0.16
[1], x2 = 0.4258	972.6 ± 2.1	969 ± 2.1	965.3 ± 2.1	–	–	–	12.15 ± 0.29	9.76 ± 0.23	7.8 ± 0.18
[1], x2 = 0.5307	979.4 ± 2.1	975.9 ± 2.1	972.3 ± 2.1	–	–	–	13.87 ± 0.33	11.18 ± 0.26	8.89 ± 0.21
[1], x2 = 0.6308	986.3 ± 2.1	982.8 ± 2.1	979.2 ± 2.1	–	–	–	15.47 ± 0.36	12.48 ± 0.29	9.99 ± 0.23
[1], x2 = 0.7174	992.7 ± 2.1	989.2 ± 2.1	985.6 ± 2.1	–	–	–	16.82 ± 0.39	13.6 ± 0.32	10.89 ± 0.26
[1], x2 = 0.798	998.7 ± 2.1	995.5 ± 2.1	992 ± 2.1	–	–	–	18.22 ± 0.43	14.73 ± 0.35	11.84 ± 0.28
[1], x2 = 0.879	1005.1 ± 2.1	1001.7 ± 2.1	998.5 ± 2.1	–	–	–	19.23 ± 0.45	15.49 ± 0.36	12.42 ± 0.29
[1], x2 = 0.9336	1008.9 ± 2.1	1005.6 ± 2.1	1002.4 ± 2.1	–	–	–	19.31 ± 0.45	15.49 ± 0.36	12.34 ± 0.29
[2], x2 = 0	–	–	–	1.4822 ± 0.0021	1.4808 ± 0.0021	1.4793 ± 0.0021	–	–	–
[2], x2 = 0.0989	–	–	–	1.4815 ± 0.0021	1.4802 ± 0.0021	1.4791 ± 0.0021	–	–	–
[2], x2 = 0.2021	–	–	–	1.4806 ± 0.0021	1.4791 ± 0.0021	1.4778 ± 0.0021	–	–	–
[2], x2 = 0.3013	–	–	–	1.4794 ± 0.0021	1.4778 ± 0.0021	1.4765 ± 0.0021	–	–	–
[2], x2 = 0.4007	–	–	–	1.4778 ± 0.0021	1.4764 ± 0.0021	1.4752 ± 0.0021	–	–	–
[2], x2 = 0.4984	–	–	–	1.4758 ± 0.0021	1.4743 ± 0.0021	1.4729 ± 0.0021	–	–	–
[2], x2 = 0.6007	–	–	–	1.4731 ± 0.0021	1.4717 ± 0.0021	1.4703 ± 0.0021	–	–	–
[2], x2 = 0.7027	–	–	–	1.4696 ± 0.0021	1.4683 ± 0.0021	1.467 ± 0.0021	–	–	–
[2], x2 = 0.8002	–	–	–	1.4657 ± 0.0021	1.4643 ± 0.0021	1.4631 ± 0.0021	–	–	–
[2], x2 = 0.8987	–	–	–	1.4608 ± 0.0021	1.4591 ± 0.0021	1.4577 ± 0.0021	–	–	–

— the NIST ThermoML archive (doi:10.1016/j.fluid.2017.06.018)
